pIC50: −log10 of the molar value.
Molecular target: T1, human TRPV4 (Homo sapiens, UniProt Q9HBA0)
T1 construct: host or cells: tetracycline-inducible Flp-In T-REx 293 cells
Assay: Hypotonicity-induced Ca2+ influx (Fluo-4, FDSS)
Format: cell-based
In short: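 Flp-In T-REx 293 cells with tetracycline-induced human TRPV4, loaded with Fluo-4 for 60 min at 25 °C. Compound added 5 min before hypotonic mannitol/CaCl2 solution. Ca2+ signal recorded for 4.5 min on FDSS.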

[1] = Flp-In T-REx 293 cells expressing human TRPV4, examples listed under heading 'Human IC50<50 nM'
[2] = Flp-In T-REx 293 cells stably expressing human TRPV4, compounds listed by potency bin (<10 nM Tables 96-1/96-2, <3 nM Table 97)

T1 sequence (Q9HBA0 whole entry): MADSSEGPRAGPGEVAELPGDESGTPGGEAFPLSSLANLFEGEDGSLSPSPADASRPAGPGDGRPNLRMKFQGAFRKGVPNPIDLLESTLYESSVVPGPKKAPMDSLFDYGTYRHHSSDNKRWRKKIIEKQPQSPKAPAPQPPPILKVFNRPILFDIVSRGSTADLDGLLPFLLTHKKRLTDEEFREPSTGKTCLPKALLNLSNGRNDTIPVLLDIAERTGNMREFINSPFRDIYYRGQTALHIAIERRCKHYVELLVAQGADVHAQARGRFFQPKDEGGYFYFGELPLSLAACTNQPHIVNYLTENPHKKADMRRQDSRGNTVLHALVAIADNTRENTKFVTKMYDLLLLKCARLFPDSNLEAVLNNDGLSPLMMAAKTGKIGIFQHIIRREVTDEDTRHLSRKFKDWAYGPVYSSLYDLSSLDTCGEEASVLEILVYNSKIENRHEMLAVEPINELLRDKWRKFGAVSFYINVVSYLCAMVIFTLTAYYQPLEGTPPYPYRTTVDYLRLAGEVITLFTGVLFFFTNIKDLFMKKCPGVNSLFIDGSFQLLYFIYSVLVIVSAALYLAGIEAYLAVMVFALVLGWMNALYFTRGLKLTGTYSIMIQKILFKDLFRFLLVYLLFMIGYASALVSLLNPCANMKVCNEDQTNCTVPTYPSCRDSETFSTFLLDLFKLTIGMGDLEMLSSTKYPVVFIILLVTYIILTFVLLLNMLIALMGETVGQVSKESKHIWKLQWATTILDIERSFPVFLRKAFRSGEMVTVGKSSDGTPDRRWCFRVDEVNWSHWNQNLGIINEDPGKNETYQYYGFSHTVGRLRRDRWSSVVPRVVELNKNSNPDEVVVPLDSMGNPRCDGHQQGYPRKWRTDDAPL

Row | Compound | pIC50 [1] | pIC50 [2]
1 | CC(C)(C)c1cccc(-c2cccc([C@@H](O)C(=O)N3CCCc4nc(C5(c6cccc(C7CCCCC7)c6)CC5)[nH]c(=O)c4C3)c2)c1 [52-5] | > 7.30 | > 8.00
2 | CC(C)(C)c1cccc(-c2cccc(CC(=O)N3CCCc4nc(C5(c6ccccc6)CC5)[nH]c(=O)c4C3)c2)c1 [57-4] | > 7.30 | > 8.00
3 | CC(C)c1csc(C2(c3nc4c(c(=O)[nH]3)CN(C(=O)C(O)c3cccc(Cl)c3F)CC4)CC2)c1 (centres unmarked) [15-27] | > 7.30 | > 8.52
4 | O=C([C@H](O)c1cccc(-c2cc(Cl)cc(C(F)(F)F)c2)c1)N1CCc2nc(C3(c4cccc(Cl)c4)CC3)[nH]c(=O)c2C1 [45-10] | > 7.30 | > 8.00
5 | O=C(Cc1cccc(-c2cccc(C(F)(F)F)c2)c1)N1CCc2nc(C3(c4cccc(Cl)c4)CC3)[nH]c(=O)c2C1 [14-122] | > 7.30 | > 8.00
6 | CC(C)(O)CCc1csc(C2(c3nc4c(c(=O)[nH]3)CN(C(=O)[C@H](O)c3cccc(C(F)(F)F)c3)CCC4)CC2)c1 [30-12] | > 7.30 | –
7 | CC(C)(C)c1cccc(-c2cccc(CC(=O)N3CCCc4nc(C5(c6cccc(Cl)c6)CC5)[nH]c(=O)c4C3)c2)c1 [57-6] | > 7.30 | > 8.00
8 | O=C(Cc1cccc(-c2cccc(OC(F)(F)F)c2)c1)N1CCc2nc(C3(c4cccc(Cl)c4)CC3)[nH]c(=O)c2C1 [45-12] | > 7.30 | > 8.00
9 | CC(C)c1cncc(C2(c3nc4c(c(=O)[nH]3)CN(C(=O)[C@H](O)c3cccc(-c5cccc(OC(F)(F)F)c5)c3)CCC4)CC2)c1 [55-4] | > 7.30 | > 8.00
10 | O=C(Cc1ccccc1OCc1ccccc1)N1CCCc2nc(C3(c4cccc(Cl)c4)CC3)[nH]c(=O)c2C1 [17-82] | > 7.30 | > 8.00
11 | N#Cc1cc(Cl)cc(-c2cccc(CC(=O)N3CCCc4nc(C5(c6ccccc6)CC5)[nH]c(=O)c4C3)c2)c1 [17-138] | > 7.30 | > 8.00
12 | O=C([C@H](O)c1cccc(-c2csc3ccccc23)c1)N1CCCc2nc(C3(c4cc(C5CCCCC5)cs4)CC3)[nH]c(=O)c2C1 [54-8] | > 7.30 | > 8.00
13 | O=C([C@H](O)c1cccc(-c2cccc(C(F)(F)F)c2)c1)N1CCCc2nc(C3(c4cncc(C5CCCCC5)c4)CC3)[nH]c(=O)c2C1 [55-14] | > 7.30 | > 8.00
14 | O=C(Cc1cccc2ccccc12)N1CCCc2nc(C3(c4cccc(Cl)c4)CC3)[nH]c(=O)c2C1 [17-120] | > 7.30 | > 8.00
15 | CC(C)c1cccc(C2(c3nc4c(c(=O)[nH]3)CN(C(=O)C(F)(F)c3cccc(Cl)c3)CC4)CC2)c1 [20-14] | > 7.30 | –
16 | CC(C)N(C(=O)c1csc(C2(c3nc4c(c(=O)[nH]3)CN(C(=O)[C@H](O)c3cccc(C(F)(F)F)c3)CCC4)CC2)c1)C(C)C [59-14, (R)-5-(1-(6-(2-hydroxy-2-(3-(trifluoromethyl)phenyl)acetyl)-4-oxo-4,5,6,7,8,9-hexahydro-3H-pyrimido[5,4-c]azepin-2-yl)cyclopropyl)-N,N-diisopropylthiophene-3-carboxamide] | > 7.30 | > 8.00
17 | O=C([C@H](O)c1cccc(C(F)(F)F)c1)N1CCCc2nc(C3(c4cccc(-c5ccc(N6CCC(c7ccccc7)CC6)nc5)c4)CC3)[nH]c(=O)c2C1 [42-87] | > 7.30 | > 8.00
18 | O=C(Cc1cccc(-c2cccc(C(F)(F)F)c2)c1)N1CCCc2c(nc(C3(c4ccccc4)CC3)[nH]c2=O)C1 [17-109] | > 7.30 | –
19 | CC(C)(C)CC(=O)N1CCN(c2ccc(-c3cccc(C4(c5nc6c(c(=O)[nH]5)CN(C(=O)[C@H](O)c5cccc(C(F)(F)F)c5)CCC6)CC4)c3)cn2)CC1 [42-85] | > 7.30 | > 8.00
20 | CC(C)Oc1cccc(-c2cccc(C(F)(F)C(=O)N3CCCc4nc(C5(c6ccccc6)CC5)[nH]c(=O)c4C3)c2)c1 [58-3] | > 7.30 | > 8.00
21 | O=C(Cc1cccc(C(F)(F)F)c1F)N1CCCc2nc(C3(c4cccc(Cl)c4)CC3)[nH]c(=O)c2C1 [17-111] | > 7.30 | > 8.00
22 | O=C([C@H](O)c1cccc(C(F)(F)F)c1)N1CCCc2nc(C3(c4cccc(C5=CCN(C(=O)N6CCCCC6)CC5)c4)CC3)[nH]c(=O)c2C1 [42-73] | > 7.30 | > 8.00
23 | CC(C)c1csc(C2(c3nc4c(c(=O)[nH]3)CN(C(=O)C(O)c3cccc(-c5cccc(OC(F)(F)F)c5)c3)CCC4)CC2)c1 (centres unmarked) [18-20] | > 7.30 | > 8.00
24 | O=C([C@H](O)c1cccc(Cl)c1)N1CCc2nc(C3(c4cc(C5CCCC5)cs4)CC3)[nH]c(=O)c2C1 [23-2] | > 7.30 | > 8.00
25 | O=C(Cc1cccc(-c2cccc(C(F)(F)F)c2)c1)N1CCCc2nc(C3(c4cccc(C5=CCCCC5)c4)CC3)[nH]c(=O)c2C1 [42-70] | > 7.30 | > 8.00

The remaining lines, values ahead:

Row | pIC50 [1] | pIC50 [2] | Compound
26 | > 7.30 | – | O=C([C@H](O)c1cccc(-c2ccc3ncccc3c2)c1)N1CCc2nc(C3(c4ccccc4)CC3)[nH]c(=O)c2C1 [44-88]
27 | > 7.30 | – | O=C(NCc1ccccc1)c1csc(C2(c3nc4c(c(=O)[nH]3)CN(C(=O)[C@H](O)c3cccc(C(F)(F)F)c3)CCC4)CC2)c1 [59-6]
28 | > 7.30 | – | O=C(C(O)c1ccccc1C(F)(F)F)N1CCCc2nc(C3(c4cccc(Cl)c4)CC3)[nH]c(=O)c2C1 (centres unmarked) [17-43]
29 | > 7.30 | – | O=C(C(O)c1cccc(-c2cccc(F)c2)c1)N1CCc2nc(C3(c4cccc(F)c4)CC3)[nH]c(=O)c2C1 (centres unmarked) [14-19]
30 | > 7.30 | > 8.52 | O=C(C(O)c1cccc(C(F)(F)F)c1F)N1CCCc2nc(C3(c4cccc(Cl)c4)CC3)[nH]c(=O)c2C1 (centres unmarked) [17-4]
31 | > 7.30 | > 8.52 | O=C(C(O)c1cccc(C(F)(F)F)c1F)N1CCCc2nc(C3(c4cccs4)CC3)[nH]c(=O)c2C1 (centres unmarked) [18-3]
32 | > 7.30 | > 8.00 | O=C([C@H](O)c1cccc(-c2ccc(Cl)cc2)c1)N1CCc2nc(C3(c4ccccc4)CC3)[nH]c(=O)c2C1 [44-86]
33 | > 7.30 | – | O=C(C(O)c1cccc(-c2cccc(C(F)(F)F)c2Cl)c1)N1CCc2nc(C3(c4ccccc4)CC3)[nH]c(=O)c2C1 (centres unmarked) [44-46]
34 | > 7.30 | > 8.52 | O=C([C@H](O)c1cccc(-c2ccc3c(c2)OC(F)(F)O3)c1)N1CCc2nc(C3(c4ccccc4)CC3)[nH]c(=O)c2C1 [44-85]
35 | > 7.30 | > 8.00 | O=C(C(O)c1cccc(S(F)(F)(F)(F)F)c1)N1CCCc2nc(C3(c4ccccc4)CC3)[nH]c(=O)c2C1 (centres unmarked) [17-41]
36 | > 7.30 | > 8.52 | O=C([C@H](O)c1cccc(-c2cccc(OC(F)(F)F)c2)c1)N1CCCc2nc(C3(c4ccccc4)CC3)[nH]c(=O)c2C1 [49-14]
37 | > 7.30 | > 8.00 | CC(C)(C)c1cc(-c2cccc([C@@H](O)C(=O)N3CCc4nc(C5(c6ccccc6)CC5)[nH]c(=O)c4C3)c2)cc(C(C)(C)C)c1 [44-103]
38 | > 7.30 | > 8.00 | O=C(C(O)c1cccc(-c2cccc(OC(F)(F)F)c2)n1)N1CCc2nc(C3(c4ccccc4)CC3)[nH]c(=O)c2C1 (centres unmarked) [48-2]
39 | > 7.30 | – | CC(C)(C)c1cccc(C(O)C(=O)N2CCc3nc(C4(c5cccc(F)c5)CC4)[nH]c(=O)c3C2)c1 (centres unmarked) [14-22]
40 | > 7.30 | > 8.52 | O=C([C@H](O)c1cccc(Cl)c1)N1CCCc2nc(C3(c4cc(-c5ccccc5)cs4)CC3)[nH]c(=O)c2C1 [39-1]
41 | > 7.30 | > 8.00 | CC(C)c1cccc(C2(c3nc4c(c(=O)[nH]3)CN(C(=O)[C@H](O)c3cccc(-c5cccc(OC(F)(F)F)c5)c3)CCC4)CC2)c1 [51-3]
42 | > 7.30 | > 8.00 | CC(C)(C)c1cccc(-c2cccc([C@@H](O)C(=O)N3CCCc4nc(C5(c6cccc(Cl)c6)CC5)[nH]c(=O)c4C3)c2)c1 [50-7]
43 | > 7.30 | > 8.00 | O=C([C@H](O)c1cccc(-c2ccc(OC(F)(F)F)cc2)c1)N1CCCc2nc(C3(c4cccc(Cl)c4)CC3)[nH]c(=O)c2C1 [50-26]
44 | > 7.30 | > 8.52 | O=C([C@H](O)c1cccc(Cl)c1)N1CCCc2nc(C3(c4cccc(C5CCC(F)(F)CC5)c4)CC3)[nH]c(=O)c2C1 [29-4]
45 | > 7.30 | > 8.52 | O=C([C@H](O)c1cccc(-c2cc3ccccc3o2)c1)N1CCc2nc(C3(c4ccccc4)CC3)[nH]c(=O)c2C1 [44-84]
46 | > 7.30 | > 8.00 | O=C(C(O)c1cccc(-c2cccc(C(F)(F)F)c2)c1)N1CCCc2nc(C3(c4cccc(Cl)c4)CC3)[nH]c(=O)c2C1 (centres unmarked) [17-16]
47 | > 7.30 | > 8.00 | CC(C)Oc1cccc(-c2cccc([C@@H](O)C(=O)N3CCCc4nc(C5(c6cccc(Cl)c6)CC5)[nH]c(=O)c4C3)c2)c1 [50-13]
48 | > 7.30 | – | O=C(C(O)c1cccc(Br)c1)N1CCCc2nc(C3(c4ccccc4)CC3)[nH]c(=O)c2C1 (centres unmarked) [17-55]
49 | > 7.30 | – | O=C(C(O)c1cc(Cl)cc(Cl)c1)N1CCCc2nc(C3(c4ccccc4)CC3)[nH]c(=O)c2C1 (centres unmarked) [17-61]
50 | > 7.30 | > 8.00 | Cc1ccc(-c2cccc([C@@H](O)C(=O)N3CCc4nc(C5(c6ccccc6)CC5)[nH]c(=O)c4C3)c2)cc1Cl [44-94]
51 | > 7.30 | > 8.52 | CC(C)c1csc(C2(c3nc4c(c(=O)[nH]3)CN(C(=O)[C@H](O)c3cccc(Cl)c3)CCC4)CC2)c1 [18-24]
52 | > 7.30 | > 8.00 | O=C(Cc1cccc(-c2cccc(F)c2)c1)N1CCCc2nc(C3(c4ccccc4)CC3)[nH]c(=O)c2C1 [57-1]
53 | > 7.30 | > 8.00 | N#Cc1ccc(-c2cccc(C3(c4nc5c(c(=O)[nH]4)CN(C(=O)[C@H](O)c4cccc(C(F)(F)F)c4)CCC5)CC3)c2)cc1 [42-65]
54 | > 7.30 | > 8.00 | O=C(Cc1cccc(-c2ccc(OC(F)(F)F)cc2)c1)N1CCCc2nc(C3(c4ccccc4)CC3)[nH]c(=O)c2C1 [17-134]
55 | > 7.30 | – | O=C(C(O)c1cccc(S(F)(F)(F)(F)F)c1)N1CCc2nc(C3(c4cccc(Cl)c4)CC3)[nH]c(=O)c2C1 (centres unmarked) [14-17]
